# Results from patent US20090264433A1, “Compounds, Compositions and Methods Comprising Triazine Derivatives” (Institute for OneWorld Health, priority 2008, published 2009).
# Biological target: T1, CFTR channel in human colonic T84 cells (Homo sapiens, UniProt P13569)
# T1 construct: results in the phosphorylation and opening of CFTR anion channels; host or cells: human colonic T84 cells
# Assay: T84 assay (FLIPR membrane potential dye, forskolin/IBMX-stimulated CFTR)
# Format: cell-based
# Settings: average of at least 2 runs unless annotated n = 1
# Protocol: (§1) For example, Human colonic T84 cells can be acquired from the European Collection of Cell Cultures (ECACC) and grown in standard culture conditions as described by the supplier. On the day before assay 25,000 T84 cells per well are plated into standard black walled, clear bottom 384-well assay plates in standard growth medium consisting of DMEM:F12 with 10% FBS and incubated overnight. On the day of the assay the plates are washed using a standard assay buffer (HBSS with 10 mM Hepes) and incubated for 15 minutes in serum free cell culture medium before the addition of a commercially available membrane potential sensitive fluorescent dye (FLIPR Red membrane potential dye, Molecular Devices Corporation). T84 cells are incubated with the FLIPR Red membrane potential dye for 45 minutes in the presence and absence of test compound before being transferred to a commercially available fluorescence imaging plate reader (FLIPR384, Molecular Devices Corporation). Fluorescence levels are monitored continuously every second for 150 seconds; after an initial 10 second baseline, CFTR channel activity is stimulated through the addition of 10 μM forskolin in the presence of 100 μM of the phosphodiesterase inhibitor iso-butyl-methylxanthine (IBMX). Addition of the forskolin leads to the activation of intracellular adenylyl cylase 1, elevating cAMP levels and results in the phosphorylation and opening of CFTR anion channels. CFTR channel opening causes chloride ion efflux and subsequent depolarization of the cells, which is measured by an increase in fluorescence. CFTR inhibitor compounds prevent cell depolarization and the associated increase in fluorescence.
# as §1, with “Human colonic” for “For example, Human colonic”, “T84 cells are acquired from” for “T84 cells can be acquired from”, “(ECACC) and are grown in” for “(ECACC) and grown in”
# T1 sequence (P13569 whole entry): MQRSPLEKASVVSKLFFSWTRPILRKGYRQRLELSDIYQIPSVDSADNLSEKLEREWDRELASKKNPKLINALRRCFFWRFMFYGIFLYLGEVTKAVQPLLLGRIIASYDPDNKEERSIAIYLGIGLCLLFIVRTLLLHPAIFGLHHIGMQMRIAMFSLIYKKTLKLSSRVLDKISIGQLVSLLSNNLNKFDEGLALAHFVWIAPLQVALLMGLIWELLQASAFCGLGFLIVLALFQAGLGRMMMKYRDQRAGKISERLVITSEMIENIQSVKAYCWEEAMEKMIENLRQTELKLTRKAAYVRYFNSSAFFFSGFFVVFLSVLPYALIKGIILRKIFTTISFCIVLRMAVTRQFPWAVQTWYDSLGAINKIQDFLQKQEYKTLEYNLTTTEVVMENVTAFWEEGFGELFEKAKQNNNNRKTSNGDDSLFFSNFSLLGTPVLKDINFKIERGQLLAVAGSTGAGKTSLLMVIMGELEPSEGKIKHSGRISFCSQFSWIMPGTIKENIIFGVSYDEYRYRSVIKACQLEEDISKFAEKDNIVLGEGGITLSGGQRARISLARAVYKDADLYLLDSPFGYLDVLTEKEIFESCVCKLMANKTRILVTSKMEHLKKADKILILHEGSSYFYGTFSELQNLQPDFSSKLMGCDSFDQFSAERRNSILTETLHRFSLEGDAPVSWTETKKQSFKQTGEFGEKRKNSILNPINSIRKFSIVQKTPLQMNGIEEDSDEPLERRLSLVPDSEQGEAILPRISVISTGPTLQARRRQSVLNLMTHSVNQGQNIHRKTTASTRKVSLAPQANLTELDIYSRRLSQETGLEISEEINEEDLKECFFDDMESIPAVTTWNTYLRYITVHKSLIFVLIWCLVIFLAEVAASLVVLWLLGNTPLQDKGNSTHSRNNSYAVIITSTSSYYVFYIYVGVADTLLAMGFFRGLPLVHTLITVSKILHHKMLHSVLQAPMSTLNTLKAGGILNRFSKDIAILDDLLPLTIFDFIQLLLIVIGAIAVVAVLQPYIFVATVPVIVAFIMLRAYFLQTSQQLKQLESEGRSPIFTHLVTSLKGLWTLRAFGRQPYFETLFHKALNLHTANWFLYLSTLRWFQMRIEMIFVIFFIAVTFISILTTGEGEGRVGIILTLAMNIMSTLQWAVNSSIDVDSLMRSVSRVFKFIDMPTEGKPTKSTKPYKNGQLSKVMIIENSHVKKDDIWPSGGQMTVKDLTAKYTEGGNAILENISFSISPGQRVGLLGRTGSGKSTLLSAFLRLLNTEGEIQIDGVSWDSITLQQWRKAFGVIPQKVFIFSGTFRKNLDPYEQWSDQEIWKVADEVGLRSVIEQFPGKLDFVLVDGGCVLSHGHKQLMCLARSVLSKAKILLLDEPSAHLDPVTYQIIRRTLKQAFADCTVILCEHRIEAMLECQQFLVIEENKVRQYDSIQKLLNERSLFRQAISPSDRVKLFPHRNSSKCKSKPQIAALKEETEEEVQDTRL
row,IC50,SMILES
1,2.12 µM,"Oc1c(Br)cc(-c2cnc(Oc3ccc(Cl)c(Cl)c3)nn2)cc1Br [Compound 21, 2,6-dibromo-4-(3-(3,4-dichlorophenoxy)-1,2,4-triazin-6-yl)phenol]"
2,2.33 µM,"Oc1c(Br)cc(-c2cnc(OCc3c(Cl)cc(Cl)cc3Cl)nn2)cc1Br [Compound 22, 2,6-dibromo-4-(3-(2,4,6-trichlorobenzyloxy)-1,2,4-triazin-6-yl)phenol]"
3,2.7 µM,"Oc1c(Br)cc(-c2cnc(OCc3cccc(Cl)c3Cl)nn2)cc1Br [Compound 23, 2,6-dibromo-4-(3-(2,3-dichlorobenzyloxy)-1,2,4-triazin-6-yl)phenol]"
4,3.02 µM,"Oc1c(Br)cc(-c2cnc(OCc3ccc(Br)cc3)nn2)cc1Br [Compound 24, 2,6-Dibromo-4-(3-(4-bromobenzyloxy)-1,2,4-triazin-6-yl)phenol]"
5,19.8 µM,"Oc1c(Br)cc(-c2cnc(OCc3cccc(Br)c3)nn2)cc1Br [Compound 25, 2,6-dibromo-4-(3-(3-bromobenzyloxy)-1,2,4-triazin-6-yl)phenol]"
6,0.38 µM,"Oc1c(Br)cc(-c2cnc(OCc3cc(Cl)cc(Cl)c3)nn2)cc1Br [Compound 26, 2,6-dibromo-4-(3-(3,5-dichlorobenzyloxy)-1,2,4-triazin-6-yl)phenol]"
7,0.56 µM,"Oc1c(Br)cc(-c2cnc(OCc3cccc(Oc4ccccc4)c3)nn2)cc1Br [Compound 27, 2,6-dibromo-4-(3-(3-phenoxybenzyloxy)-1,2,4-triazin-6-yl)phenol]"
8,15.5 µM,"Oc1c(Br)cc(-c2cnc(OCc3ccc(OC(F)(F)F)cc3)nn2)cc1Br [Compound 28, 2,6-dibromo-4-(3-(4-(trifluoromethoxy)benzyloxy)-1,2,4-triazin-6-yl)phenol]"
9,1.35 µM,"Cc1cc(Cl)ccc1COc1ncc(-c2cc(Br)c(O)c(Br)c2)nn1 [Compound 29, 2,6-dibromo-4-(3-(4-chloro-2-methylbenzyloxy)-1,2,4-triazin-6-yl)phenol]"
10,4.93 µM,"Oc1c(Br)cc(-c2cnc(C(O)(c3ccccc3)c3ccccc3)nn2)cc1Br [Compound 32, 2,6-dibromo-4-(3-(hydroxydiphenylmethyl)-1,2,4-triazin-6-yl)phenol]"
11,5.39 µM,"Oc1c(Br)cc(-c2cnc(COc3cccc4ccccc34)nn2)cc1Br [Compound 33, 2,6-Dibromo-4-(3-((naphthalen-1-yloxy)methyl)-1,2,4-triazin-6-yl)phenol]"
12,11.6 µM,"Cc1ccc(Cl)c(OCc2ncc(-c3cc(Br)c(O)c(Br)c3)nn2)c1 [Compound 34, 2,6-dibromo-4-(3-((2-chloro-5-methylphenoxy)methyl)-1,2,4-triazin-6-yl)phenol]"
13,7.31 µM,"CC(C)(c1ccccc1)c1ccc(OCc2ncc(-c3cc(Br)c(O)c(Br)c3)nn2)cc1 [Compound 35, 2,6-dibromo-4-(3-((4-(2-phenylpropan-2-yl)phenoxy)methyl)-1,2,4-triazin-6-yl)phenol]"
14,8.61 µM,"Oc1c(Cl)cc(-c2cnc(COc3cccc(Cl)c3Cl)nn2)cc1Cl [Compound 37, 2,6-dichloro-4-(3-((2,3-dichlorophenoxy)methyl)-1,2,4-triazin-6-yl)phenol]"
15,10.9 µM,"Cc1cc(Cl)ccc1OCc1ncc(-c2cc(Br)c(O)c(Br)c2)nn1 [Compound 39, 2,6-dibromo-4-(3-((4-chloro-2-methylphenoxy)methyl)-1,2,4-triazin-6-yl)phenol]"
16,10.5 µM,"Cc1cc(Cl)ccc1OCc1ncc(-c2cc(Cl)c(O)c(Cl)c2)nn1 [Compound 40, 2,6-dichloro-4-(3-((4-chloro-2-methylphenoxy)methyl)-1,2,4-triazin-6-yl)phenol]"
17,10.6 µM,"Cc1ccc(OCc2ncc(-c3cc(Cl)c(O)c(Cl)c3)nn2)c2c1CCC2 [Compound 41, 2,6-dichloro-4-(3-((7-methyl-2,3-dihydro-1H-inden-4-yloxy)methyl)-1,2,4-triazin-6-yl)phenol]"

row,IC50,SMILES
1,11 µM,"Oc1c(Br)cc(-c2cnc(COc3ccc(Cl)cc3Cl)nn2)cc1Br [Compound 42, 2,6-dibromo-4-(3-((2,4-dichlorophenoxy)methyl)-1,2,4-triazin-6-yl)phenol]"
2,11.1 µM,"Oc1c(Br)cc(-c2cnc(COc3cc(Cl)ccc3Cl)nn2)cc1Br [Compound 43, 2,6-dibromo-4-(3-((2,5-dichlorophenoxy)methyl)-1,2,4-triazin-6-yl)phenol]"
3,12.7 µM,"C=CCc1ccccc1OCc1ncc(-c2cc(Br)c(O)c(Br)c2)nn1 [Compound 44, 4-(3-((2-allylphenoxy)methyl)-1,2,4-triazin-6-yl)-2,6-dibromophenol]"
4,14.1 µM,"Cc1ccc(OCc2ncc(-c3cc(Br)c(O)c(Br)c3)nn2)c2c1CCC2 [Compound 45, 2,6-dibromo-4-(3-((7-methyl-2,3-dihydro-1H-inden-4-yloxy)methyl)-1,2,4-triazin-6-yl)phenol]"
5,14.3 µM,"Cc1cc(Br)c(OCc2ncc(-c3cc(Br)c(O)c(Br)c3)nn2)c2c1CCC2 [Compound 46, 2,6-dibromo-4-(3-((5-bromo-7-methyl-2,3-dihydro-1H-inden-4-yloxy)methyl)-1,2,4-triazin-6-yl)phenol]"
6,14.7 µM,"Cc1cc(OCc2ncc(-c3cc(Br)c(O)c(Br)c3)nn2)cc(C)c1Cl [Compound 47, 2,6-dibromo-4-(3-((4-chloro-3,5-dimethylphenoxy)methyl)-1,2,4-triazin-6-yl)phenol]"
7,14.8 µM,"Oc1c(Br)cc(-c2cnc(COc3ccc4c(c3)CCC4)nn2)cc1Br [Compound 48, 2,6-dibromo-4-(3-((2,3-dihydro-1H-inden-5-yloxy)methyl)-1,2,4-triazin-6-yl)phenol]"
8,15.3 µM,"Oc1c(Br)cc(-c2cnc(COc3ccc(Br)cc3)nn2)cc1Br [Compound 49, 2,6-dibromo-4-(3-((4-bromophenoxy)methyl)-1,2,4-triazin-6-yl)phenol]"
9,15.4 µM,"CC1(C)Cc2cccc(OCc3ncc(-c4cc(Cl)c(O)c(Cl)c4)nn3)c2O1 [Compound 50, 2,6-dichloro-4-(3-((2,2-dimethyl-2,3-dihydrobenzofuran-7-yloxy)methyl)-1,2,4-triazin-6-yl)phenol]"
10,18.8 µM,"Oc1c(Br)cc(-c2cnc(COc3ccc(C4SCCS4)cc3)nn2)cc1Br [Compound 51, 4-(3-((4-(1,3-dithiolan-2-yl)phenoxy)methyl)-1,2,4-triazin-6-yl)-2,6-dibromophenol]"
11,19.8 µM,"Cc1ccc(C)c(OCc2ncc(-c3cc(Br)c(O)c(Br)c3)nn2)c1 [Compound 52, 2,6-dibromo-4-(3-((2,5-dimethylphenoxy)methyl)-1,2,4-triazin-6-yl)phenol]"
12,20.1 µM,"Cc1ccc(C(C)C)cc1OCc1ncc(-c2cc(Br)c(O)c(Br)c2)nn1 [Compound 53, 2,6-dibromo-4-(3-((5-isopropyl-2-methylphenoxy)methyl)-1,2,4-triazin-6-yl)phenol]"
13,22 µM,"Cc1cc(OCc2ncc(-c3cc(Br)c(O)c(Br)c3)nn2)cc(C)c1Br [Compound 54, 2,6-dibromo-4-(3-((4-bromo-3,5-dimethylphenoxy)methyl)-1,2,4-triazin-6-yl)phenol]"
14,22.9 µM,"Oc1c(Br)cc(-c2cnc(COc3ccc(-c4ccccc4)cc3)nn2)cc1Br [Compound 55, 4-(3-((biphenyl-4-yloxy)methyl)-1,2,4-triazin-6-yl)-2,6-dibromophenol]"
15,25.3 µM,"Oc1c(Br)cc(-c2cnc(COc3ccc(F)cc3F)nn2)cc1Br [Compound 56, 2,6-dibromo-4-(3-((2,4-difluorophenoxy)methyl)-1,2,4-triazin-6-yl)phenol]"
16,26.8 µM,"Cc1ccc(C(C)C)c(OCc2ncc(-c3cc(Br)c(O)c(Br)c3)nn2)c1 [Compound 57, 2,6-dibromo-4-(3-((2-isopropyl-5-methylphenoxy)methyl)-1,2,4-triazin-6-yl)phenol]"

row,SMILES,IC50
1,"Oc1c(Br)cc(-c2cnc(OCc3ccc(Cl)cc3)nn2)cc1Br [Compound 20, 2,6-dibromo-4-(3-(4-chlorobenzyloxy)-1,2,4-triazin-6-yl)phenol]",0.85 µM
2,"Oc1c(Br)cc(-c2cnc(COc3cccc(Cl)c3Cl)nn2)cc1Br [Compound 30, 2,6-dibromo-4-(3-((2,3-dichlorophenoxy)methyl)-1,2,4-triazin-6-yl)phenol]",9.59 µM
3,"Oc1c(Cl)cc(-c2cnc(C(O)(c3ccccc3)c3ccccc3)nn2)cc1Cl [Compound 36, 2,6-dichloro-4-(3-(hydroxydiphenylmethyl)-1,2,4-triazin-6-yl)phenol]",7.67 µM
